Earlier results on three compounds are cited in patent US6933291B2, “Cholesterol lowering supplement” (N.V. Nutricia, priority 2000, dated 2005).

The conditions of series [1]: case reports from the literature.
The conditions of series [2]: rats.
Series [3] has as its system HMG-CoA reductase. The note with it: rats given cholesterol.

For `CC[C@H](C)C(=O)O[C@H]1C[C@@H](C)C=C2C=C[C@H](C)[C@H](CC[C@@H]3C[C@@H](O)CC(=O)O3)[C@H]21` [Lovastatin, lovastatin], the “adverse effect reported in patients” value in series [1] was “liver failure”.

In the case of `CC[C@H](CC[C@@H](C)[C@H]1CC[C@H]2[C@@H]3CC=C4C[C@@H](O)CC[C@]4(C)[C@H]3CC[C@]12C)C(C)C` [beta-sitosterol], the “cholesterol absorption (effect in words)” value in series [2] is given as “inhibited”. The cholesterol synthesis in series [2] (increased from 20.0 mg/day) is 28.8 mg/day.

As for `CC(C)CCC[C@@H](C)[C@H]1CC[C@H]2[C@@H]3CC=C4C[C@@H](O)CC[C@]4(C)[C@H]3CC[C@]12C` [cholesterol], the “HMG-CoA reductase activity inhibited” value in series [3] is given as 80%. Further, the “conversion of cholesterol to bile acids” value in series [2] (enhanced from 13.7 mg/day on feeding cholesterol) is 27.3 mg/day. Besides, the cholesterol absorption in series [2] (increased from 1.2 mg/day on feeding cholesterol) is on record as 70 mg/day.
